# Source: patent publication US9108926B2, “Disubstituted 5-fluoro-pyrimidines” (Bayer Intellectual Property GmbH, priority 2011, dated 2015)
# Like-named read-outs stand apart in the source and are kept apart here.
# How the values were obtained:
# [1] = test system: B16F10 cells; assay: Proliferation assay, B16F10; assay type: cell-based; conditions: Mus musculus, B16-F10, 96 h, read-out: Inhibition of B16F10 cell proliferation IC50
# Experimental: (§1) After 24 hours, the cells of one plate (zero-point plate) were stained with crystal violet (see below), while the medium of the other plates was replaced by fresh culture medium (200 μl), to which the test substances were added in various concentrations (0 μM, as well as in the range of 0.001-10 μM; the final concentration of the solvent dimethyl sulfoxide was 0.5%). The cells were incubated for 4 days in the presence of test substances. Cell proliferation was determined by staining the cells with crystal violet: the cells were fixed by adding 20 μl/measuring point of an 11% glutaric aldehyde solution for 15 minutes at room temperature. After three washing cycles of the fixed cells with water, the plates were dried at room temperature. The cells were stained by adding 100 μl/measuring point of a 0.1% crystal violet solution (pH 3.0). After three washing cycles of the stained cells with water, the plates were dried at room temperature. The dye was dissolved by adding 100 μl/measuring point of a 10% acetic acid solution. […] The change of cell number, in percent, was calculated by normalization of the measured values to the extinction values of the zero-point plate (=0%) and the extinction of the untreated (0 μm) cells (=100%).
# [2] = test system: HeLa cells; assay: Proliferation assay, HeLa; assay type: cell-based; conditions: Homo sapiens, 96 h, read-out: Inhibition of HeLa cell proliferation IC50
# Experimental: as §1
# [3] = test system: Caco-2 cells; assay: Proliferation assay, Caco-2; assay type: cell-based; conditions: Homo sapiens, read-out: Inhibition of Caco-2 cell proliferation IC50
# Experimental: as §1
# [4] = test system: HeLa-MaTu-ADR cells; assay: Proliferation assay, HeLa-MaTu-ADR; assay type: cell-based; conditions: Homo sapiens, 96 h, read-out: Inhibition of HeLa-MaTu-ADR cell proliferation IC50
# Experimental: as §1
# [5] = test system: NCI-H460 cells; assay: Proliferation assay, NCI-H460; assay type: cell-based; conditions: Homo sapiens, read-out: Inhibition of NCI-H460 cell proliferation IC50
# Experimental: as §1
# [6] = molecular target: T1, CDK9/CycT1 (Homo sapiens, UniProt P50750); assay: CDK9/CycT1 kinase assay (TR-FRET, Method 1a)
# Text: CDK9/CycT1-inhibitory activity of compounds of the present invention was quantified employing the CDK9/CycT1 TR-FRET assay as described in the following paragraphs:
# Recombinant full-length His-tagged human CDK9 and CycT1, expressed in insect cells and purified by Ni-NTA affinity chromatography, were purchased from Invitrogen (Cat. No PV4131). As substrate for the kinase reaction biotinylated peptide biotin-Ttds-[sequence] (C-terminus in amid form) was used which can be purchased e.g. form the company JERINI Peptide Technologies (Berlin, Germany).
# For the assay 50 nl of a 100 fold concentrated solution of the test compound in DMSO was pipetted into a black low volume 384 well microtiter plate (Greiner Bio-One, Frickenhausen, Germany), 2 μl of a solution of CDK9/CycT1 in aqueous assay buffer [50 mM Tris/HCl pH 8.0, 10 mM MgCl2, 1.0 mM dithiothreitol, 0.1 mM sodium ortho-vanadate, 0.01% (v/v) Nonidet-P40 (Sigma)] were added and the mixture was incubated for 15 min at 22° C. to allow pre-binding of the test compounds to the enzyme before the start of the kinase reaction. Then the kinase reaction was started by the addition of 3 μl of a solution of adenosine-tri-phosphate (ATP, 16.7 μM=>final conc. in the 5 μl assay volume is 10 μM) and substrate (1.67 μM=>final conc. in the 5 μl assay volume is 1 μM) in assay buffer and the resulting mixture was incubated for a reaction time of 25 min at 22° C. The concentration of CDK9/CycT1 was adjusted depending of the activity of the enzyme lot and was chosen appropriate to have the assay in the linear range, typical concentrations were in the range of 1 μg/mL. The reaction was stopped by the addition of 5 μl of a solution of TR-FRET detection reagents (0.2 μM streptavidine-XL665 [Cisbio Bioassays, Codolet, France] and 1 nM anti-RB(pSer807/pSer811)-antibody from BD Pharmingen [#558389] and 1.2 nM LANCE EU-W1024 labeled anti-mouse IgG antibody [Perkin-Elmer, product no. AD0077]) in an aqueous EDTA-solution (100 mM EDTA, 0.2% (w/v) bovine serum albumin in 100 mM HEPES/NaOH pH 7.0).
# (§2) The resulting mixture was incubated 1 h at 22° C. to allow the formation of complex between the phosphorylated biotinylated peptide and the detection reagents. Subsequently the amount of phosphorylated substrate was evaluated by measurement of the resonance energy transfer from the Eu-chelate to the streptavidine-XL. Therefore, the fluorescence emissions at 620 nm and 665 nm after excitation at 350 nm was measured in a HTRF reader, e.g. a Rubystar (BMG Labtechnologies, Offenburg, Germany) or a Viewlux (Perkin-Elmer). The ratio of the emissions at 665 nm and at 622 nm was taken as the measure for the amount of phosphorylated substrate.
# [7] = molecular target: CDK2/CycE (Homo sapiens, UniProt P24941); assay: CDK2/CycE kinase assay (TR-FRET, Method 2)
# Text: CDK2/CycE-inhibitory activity of compounds of the present invention was quantified employing the CDK2/CycE TR-FRET assay as described in the following paragraphs:
# Recombinant fusion proteins of GST and human CDK2 and of GST and human CycE, expressed in insect cells (Sf9) and purified by Glutathion-Sepharose affinity chromatography, were purchased from ProQinase GmbH (Freiburg, Germany). As substrate for the kinase reaction biotinylated peptide biotin-Ttds-[sequence] (C-terminus in amid form) was used which can be purchased e.g. form the company JERINI Peptide Technologies (Berlin, Germany).
# For the assay 50 nl of a 100 fold concentrated solution of the test compound in DMSO was pipetted into a black low volume 384 well microtiter plate (Greiner Bio-One, Frickenhausen, Germany), 2 μl of a solution of CDK2/CycE in aqueous assay buffer [50 mM Tris/HCl pH 8.0, 10 mM MgCl2, 1.0 mM dithiothreitol, 0.1 mM sodium ortho-vanadate, 0.01% (v/v) Nonidet-P40 (Sigma)] were added and the mixture was incubated for 15 min at 22° C. to allow pre-binding of the test compounds to the enzyme before the start of the kinase reaction. Then the kinase reaction was started by the addition of 3 μl of a solution of adenosine-tri-phosphate (ATP, 16.7 μM=>final conc. in the 5 μl assay volume is 10 μM) and substrate (1.25 μM=>final conc. in the 5 μl assay volume is 0.75 μM) in assay buffer and the resulting mixture was incubated for a reaction time of 25 min at 22° C. The concentration of CDK2/CycE was adjusted depending of the activity of the enzyme lot and was chosen appropriate to have the assay in the linear range, typical concentrations were in the range of 130 ng/mL. The reaction was stopped by the addition of 5 μl of a solution of TR-FRET detection reagents (0.2 μM streptavidine-XL665 [Cisbio Bioassays, Codolet, France] and 1 nM anti-RB(pSer807/pSer811)-antibody from BD Pharmingen [#558389] and 1.2 nM LANCE EU-W1024 labeled anti-mouse IgG antibody [Perkin-Elmer, product no. AD0077]) in an aqueous EDTA-solution (100 mM EDTA, 0.2% (w/v) bovine serum albumin in 100 mM HEPES/NaOH pH 7.0).
# The resulting mixture was incubated 1 h at 22° C. to allow the formation of complex between the phosphorylated biotinylated peptide and the detection reagents. Subsequently the amount of phosphorylated substrate was evaluated by measurement of the resonance energy transfer from the Eu-chelate to the streptavidine-XL. Therefore, the fluorescence emissions at 620 nm and 665 nm after excitation at 350 nm was measured in a TR-FRET reader, e.g. a Rubystar (BMG Labtechnologies, Offenburg, Germany) or a Viewlux (Perkin-Elmer). The ratio of the emissions at 665 nm and at 622 nm was taken as the measure for the amount of phosphorylated substrate.
# [8] = molecular target: T1, CDK9/CycT1
# Experimental: CDK9/CycT1 High ATP Kinase Assay
# CDK9/CycT1-inhibitory activity of compounds of the present invention at a high ATP concentration after preincubation of enzyme and test compounds was quantified employing the CDK9/CycT1 TR-FRET assay as described in the following paragraphs.
# Recombinant full-length His-tagged human CDK9 and CycT1, expressed in insect cells and purified by Ni-NTA affinity chromatography, were purchase from Invitrogen (Cat. No PV4131). As substrate for the kinase reaction biotinylated peptide biotin-Ttds-[sequence]
# For the assay 50 nl of a 100 fold concentrated solution of the test compound in DMSO was pipetted into a black low volume 384 well microtiter plate (Greiner Bio-One, Frickenhausen, Germany), 2 μl of a solution of CDK9/CycT1 in aqueous assay buffer [50 mM Tris/HCl pH 8.0, 10 mM MgCl2, 1.0 mM dithiothreitol, 0.1 mM sodium ortho-vanadate, 0.01% (v/v) Nonidet-P40 (Sigma)] were added and the mixture was incubated for 15 min at 22° C. to allow pre-binding of the test compounds to the enzyme before the start of the kinase reaction. Then the kinase reaction was started by the addition of 3 μl of a solution of adenosine-tri-phosphate (ATP, 3.3 mM=>final conc. in the 5 μl assay volume is 2 mM) and substrate (1.67 μM=>final conc. in the 5 μl assay volume is 1 μM) in assay buffer and the resulting mixture was incubated for a reaction time of 25 min at 22° C. The concentration of CDK9/CycT1 was adjusted depending of the activity of the enzyme lot and was chosen appropriate to have the assay in the linear range, typical concentrations were in the range of 0.5 μg/mL. The reaction was stopped by the addition of 5 μl of a solution of TR-FRET detection reagents (0.2 μM streptavidine-XL665 [Cisbio Bioassays, Codolet, France] and 1 nM anti-RB(pSer807/pSer811)-antibody from BD Pharmingen [#558389] and 1.2 nM LANCE EU-W1024 labeled anti-mouse IgG antibody [Perkin-Elmer, product no. AD0077]) in an aqueous EDTA-solution (100 mM EDTA, 0.2% (w/v) bovine serum albumin in 100 mM HEPES/NaOH pH 7.0).
# as §2
# [9] = test system: DU145 cells; assay: Proliferation assay, DU145; assay type: cell-based; conditions: Homo sapiens, DU-145, 96 h, read-out: Inhibition of DU145 cell proliferation IC50
# Experimental: as §1
# [10] = Caco-2 permeation assay; assay type: in vitro ADME; conditions: human, pH 7.2, Caco-2, test compound 2 μM
# Experimental: 4. Caco-2 Permeation Assay:
# Caco-2 cells (purchased from DSMZ Braunschweig, Germany) were seeded at a density of 4.5×10^4 cells per well on 24 well insert plates, 0.4 μm pore size, and grown for 15 days in DMEM medium supplemented with 10% fetal bovine serum, 1% GlutaMAX (100×, GIBCO), 100 U/mL penicillin, 100 μg/mL streptomycin (GIBCO) and 1% non essential amino acids (100×). Cells were maintained at 37° C. in a humified 5% CO2 atmosphere. Medium was changed every 2-3 day. Before running the permeation assay, the culture medium was replaced by a FCS-free hepes-carbonate transport buffer (pH 7.2). For assessment of monolayer integrity the transepithelial electrical resistance (TEER) was measured. Test compounds were predissolved in DMSO and added either to the apical or basolateral compartment in final concentration of 2 μM in transport buffer. Before and after 2 h incubation at 37° C. samples were taken from both compartments. Analysis of compound content was done after precipitation with methanol by LC/MS/MS analysis. Permeability (Papp) was calculated in the apical to basolateral (A→B) and basolateral to apical (B→A) directions. […] The efflux ratio basolateral (B) to apical (A) was calculated by dividing the Papp B−A by the Papp A−B. In addition the compound recovery was calculated. The following reference compounds were used for the classification of the permeability class: Antipyrine, Pyrazosin, Verapamil, Fluvastatin, Cimetidine, Ranitidine, Atenolol, Sulfasalazine.
# [11] = 96 h, Caco-2, 4 days, crystal violet
# [12] = HeLa-MaTu-ADR, 4 days, crystal violet
# [13] = 96 h, NCI-H460, 4 days, crystal violet
# T1 sequence (P50750 whole entry): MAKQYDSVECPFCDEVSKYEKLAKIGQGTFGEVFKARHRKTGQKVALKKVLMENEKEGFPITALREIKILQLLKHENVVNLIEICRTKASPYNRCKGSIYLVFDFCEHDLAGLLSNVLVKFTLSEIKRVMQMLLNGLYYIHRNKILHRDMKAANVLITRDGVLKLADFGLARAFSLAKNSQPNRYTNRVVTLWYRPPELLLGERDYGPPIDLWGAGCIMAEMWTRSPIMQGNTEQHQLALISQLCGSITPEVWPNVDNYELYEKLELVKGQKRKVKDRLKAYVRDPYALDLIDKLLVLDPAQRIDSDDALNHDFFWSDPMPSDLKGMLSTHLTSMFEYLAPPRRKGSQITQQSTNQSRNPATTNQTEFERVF
# T1 sequence (O60563 whole entry partner): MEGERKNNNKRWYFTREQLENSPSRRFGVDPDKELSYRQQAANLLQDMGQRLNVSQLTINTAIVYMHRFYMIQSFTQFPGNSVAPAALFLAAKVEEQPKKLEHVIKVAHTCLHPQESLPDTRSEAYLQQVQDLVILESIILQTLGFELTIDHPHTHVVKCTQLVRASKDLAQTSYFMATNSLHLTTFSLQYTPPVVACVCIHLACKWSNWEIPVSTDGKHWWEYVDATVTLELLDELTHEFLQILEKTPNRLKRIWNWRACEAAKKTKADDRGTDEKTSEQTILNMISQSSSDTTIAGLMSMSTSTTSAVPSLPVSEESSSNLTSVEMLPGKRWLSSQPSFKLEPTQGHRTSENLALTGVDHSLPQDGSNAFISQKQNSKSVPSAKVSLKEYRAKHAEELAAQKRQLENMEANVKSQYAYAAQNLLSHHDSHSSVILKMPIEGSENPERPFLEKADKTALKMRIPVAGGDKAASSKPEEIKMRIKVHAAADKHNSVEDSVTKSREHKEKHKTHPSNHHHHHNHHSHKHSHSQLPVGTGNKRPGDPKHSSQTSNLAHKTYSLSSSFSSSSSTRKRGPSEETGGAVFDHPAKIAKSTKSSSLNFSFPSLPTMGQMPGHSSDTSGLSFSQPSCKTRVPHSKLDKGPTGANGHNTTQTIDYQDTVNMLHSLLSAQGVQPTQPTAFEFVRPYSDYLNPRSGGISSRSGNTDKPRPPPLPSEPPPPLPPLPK
SMILES,IC50 [6],IC50 [7],IC50 [8],"IC50 ([1]; B16F10, 4 days, crystal violet)","IC50 ([2]; 4 days, crystal violet)","IC50 [3, 11]","IC50 [4, 12]","IC50 [5, 13]","IC50 ([9]; DU145, 4 days, crystal violet)",other results
"CS(=O)(=O)Cc1cccc(Nc2ncc(F)c(-c3cccc4c3OCCO4)n2)c1 [Example 13, 4-(2,3-Dihydro-1,4-benzodioxin-5-yl)-5-fluoro-N-{3-[(methylsulfonyl)methyl]phenyl}pyrimidin-2-amine]",6 nM,120 nM,5 nM,–,–,–,–,–,–,"IC50 [1]: 510 nM; IC50 [2]: 210 nM; IC50 ([3]; Caco-2, 96 h): 220 nM; IC50 [4]: 190 nM; IC50 ([5]; NCI-H460, 96 h): 340 nM; IC50 [9]: 310 nM"
"COCCS(=O)(=O)Cc1cccc(Nc2ncc(F)c(-c3ccc(F)cc3OCc3ccccc3)n2)c1 [Example 3, 4-[2-(Benzyloxy)-4-fluorophenyl]-5-fluoro-N-(3-{[(2-methoxyethyl)sulfonyl]methyl}phenyl)pyrimidin-2-amine]",10 nM,1200 nM,10 nM,1200 nM,1200 nM,1100 nM,1000 nM,1200 nM,1300 nM,–
"CC(C)S(=O)(=O)Cc1cccc(Nc2ncc(F)c(-c3ccc(F)cc3OCc3ccccc3)n2)c1 [Example 5, 4-[2-(Benzyloxy)-4-fluorophenyl]-5-fluoro-N-{3-[(propan-2-ylsulfonyl)methyl]phenyl}pyrimidin-2-amine]",14 nM,1600 nM,20 nM,–,–,–,–,–,–,–
"O=S(=O)(Cc1cccc(Nc2ncc(F)c(-c3ccc(F)cc3OCc3ccccc3)n2)c1)C1CCCCC1 [Example 6, 4-[2-(Benzyloxy)-4-fluorophenyl]-N-{3-[(cyclohexylsulfonyl)methyl]phenyl}-5-fluoropyrimidin-2-amine]",51 nM,≥ 20000 nM,98 nM,–,–,–,–,–,–,–
"COc1cc(F)ccc1-c1nc(Nc2cccc(CS(=O)(=O)Cc3ccccc3)c2)ncc1F [Example 15, N-{3-[(Benzylsulfonyl)methyl]phenyl}-5-fluoro-4-(4-fluoro-2-methoxyphenyl)-pyrimidin-2-amine]",10 nM,1100 nM,83 nM,–,1800 nM,–,–,–,–,–
"CS(=O)(=O)Cc1cc(F)cc(Nc2ncc(F)c(-c3ccc(F)cc3OCc3ccccc3)n2)c1 [Example 11, 4-[2-(Benzyloxy)-4-fluorophenyl]-5-fluoro-N-{3-fluoro-5-[(methylsulfonyl)methyl]phenyl}pyrimidin-2-amine]",–,1100 nM,–,–,1000 nM,–,–,–,–,–
"CC(C)(C)S(=O)(=O)Cc1cccc(Nc2ncc(F)c(-c3ccc(F)cc3OCc3ccccc3)n2)c1 [Example 4, 4-[2-(Benzyloxy)-4-fluorophenyl]-N-{3-[(tert-butylsulfonyl)methyl]phenyl}-5-fluoropyrimidin-2-amine]",29 nM,3100 nM,80 nM,–,–,–,–,–,–,–

# Continued, in another order:
IC50 [6],IC50 [7],IC50 [8],"IC50 ([1]; B16F10, 4 days, crystal violet)","IC50 ([2]; 4 days, crystal violet)","IC50 [3, 11]","IC50 [4, 12]","IC50 [5, 13]","IC50 ([9]; DU145, 4 days, crystal violet)",SMILES,other results
–,300 nM,–,310 nM,290 nM,260 nM,170 nM,330 nM,290 nM,"COc1cc(F)ccc1-c1nc(Nc2cccc(CS(C)(=O)=O)c2)ncc1F [Example 1, 5-Fluoro-4-(4-fluoro-2-methoxyphenyl)-N-{3 [(methylsulfonyl)methyl]phenyl}pyrimidin-2-amine]","Papp A→B at 2 h, 2 μM ([10]; apical to basolateral, read-out: Papp A-B (Mari)): 20.6 ×10⁻⁶ cm/s; Papp B→A at 2 h, 2 μM ([10]; basolateral to apical, read-out: Papp B-A (Mari)): 8.5 ×10⁻⁶ cm/s"
8 nM,840 nM,8 nM,820 nM,350 nM,490 nM,300 nM,370 nM,410 nM,"CS(=O)(=O)Cc1cccc(Nc2ncc(F)c(-c3ccc(F)cc3OCc3ccccc3)n2)c1 [Example 2, 4-[2-(Benzyloxy)-4-fluorophenyl]-5-fluoro-N-{3-[(methylsulfonyl)methyl]phenyl}pyrimidin-2-amine]",–
–,510 nM,–,–,1100 nM,–,–,–,–,"COc1cc(F)ccc1-c1nc(Nc2cccc(CS(=O)(=O)C(C)C)c2)ncc1F [Example 7, 5-Fluoro-4-(4-fluoro-2-methoxyphenyl)-N-{3-[(propan-2-ylsulfonyl)methyl]phenyl}pyrimidin-2-amine]",–
8 nM,820 nM,19 nM,410 nM,380 nM,440 nM,350 nM,320 nM,300 nM,"CS(=O)(=O)Cc1cccc(Nc2ncc(F)c(-c3ccc(F)cc3OCc3cccnc3)n2)c1 [Example 16, 5-Fluoro-4-[4-fluoro-2-(pyridin-3-ylmethoxy)phenyl]-N-{3-[(methylsulfonyl)methyl]phenyl}pyrimidin-2-amine]",–
8 nM,780 nM,40 nM,–,670 nM,–,–,–,–,"COc1cc(F)ccc1-c1nc(Nc2cccc(CS(=O)(=O)C3CC3)c2)ncc1F [Example 14, N-{3-[(Cyclopropylsulfonyl)methyl]phenyl}-5-fluoro-4-(4-fluoro-2-methoxyphenyl)pyrimidin-2-amine]",–
–,300 nM,–,340 nM,360 nM,270 nM,200 nM,340 nM,320 nM,"CS(=O)(=O)Cc1cccc(Nc2ncc(F)c(-c3cccc4c3OCCC4)n2)c1 [Example 9, 4-(3,4-Dihydro-2H-chromen-8-yl)-5-fluoro-N-{3-[(methylsulfonyl)methyl]phenyl}pyrimidin-2-amine]",–
–,210 nM,–,–,1100 nM,–,–,–,–,"O=S(=O)(Cc1cccc(Nc2ncc(F)c(-c3cccc4c3OCCC4)n2)c1)C1CC1 [Example 10, N-{3-[(Cyclopropylsulfonyl)methyl]phenyl}-4-(3,4-dihydro-2H-chromen-8-yl)-5-fluoropyrimidin-2-amine]",–
9 nM,310 nM,103 nM,950 nM,1000 nM,710 nM,380 nM,710 nM,640 nM,"COc1cc(F)ccc1-c1nc(Nc2cccc(CS(=O)(=O)CCO)c2)ncc1F [Example 8, 2-[(3-{[5-Fluoro-4-(4-fluoro-2-methoxyphenyl)pyrimidin-2-yl]amino}benzyl)sulfonyl]ethanol]",–
